Results taken from PubChem BioAssay AID1963832 (Molecular Pharmacology Branch, DTP, NCI, 2024).

Test system: 885724-159-R-J1-PDC complex spheroid viability
Test: Anticancer human tumor 885724-159-R-J1-PDC patient-derived pancreatic adenocarcinoma cell line growth inhibition [POLQ]
Conditions: for IC50: curve of first compound; for viability, T/C: stronger effect = lower value
Summary of the method: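 PDC + HUVEC + MSC complex spheroids; POLQ inhibitors ± partner drugs; top conc. at/near clinical Cmax, else 10 microM (SN-38 1 microM), half-log dilutions; 37 degrees C, 5% CO2.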

[1] = second compound 0.0316 µM, first compound 0.000316 µM
[2] = second compound 0.0316 µM, first compound 0.001 µM
[3] = second compound 0.0316 µM, first compound 0.00316 µM
[4] = second compound 0.0316 µM, first compound 0.01 µM
[5] = second compound 0.0316 µM, first compound 0.0316 µM
[6] = second compound 0.0316 µM, first compound 0.1 µM
[7] = second compound 0.1 µM, first compound 0.000316 µM
[8] = second compound 0.1 µM, first compound 0.001 µM
[9] = second compound 0.1 µM, first compound 0.00316 µM
[10] = second compound 0.1 µM, first compound 0.01 µM
[11] = second compound 0.1 µM, first compound 0.0316 µM
[12] = second compound 0.1 µM, first compound 0.1 µM
[13] = second compound 0.316 µM, first compound 0.000316 µM
[14] = second compound 0.316 µM, first compound 0.001 µM
[15] = second compound 0.316 µM, first compound 0.00316 µM
[16] = second compound 0.316 µM, first compound 0.01 µM
[17] = second compound 0.316 µM, first compound 0.0316 µM
[18] = second compound 0.316 µM, first compound 0.1 µM
[19] = second compound 1 µM, first compound 0.000316 µM
[20] = second compound 1 µM, first compound 0.001 µM
[21] = second compound 1 µM, first compound 0.00316 µM
[22] = second compound 1 µM, first compound 0.01 µM
[23] = second compound 1 µM, first compound 0.0316 µM
[24] = second compound 1 µM, first compound 0.1 µM
[25] = second compound 3.16 µM, first compound 0.000316 µM
[26] = second compound 3.16 µM, first compound 0.001 µM
[27] = second compound 3.16 µM, first compound 0.00316 µM
[28] = second compound 3.16 µM, first compound 0.01 µM
[29] = second compound 3.16 µM, first compound 0.0316 µM
[30] = second compound 3.16 µM, first compound 0.1 µM
[31] = second compound 10 µM, first compound 0.000316 µM
[32] = second compound 10 µM, first compound 0.001 µM
[33] = second compound 10 µM, first compound 0.00316 µM
[34] = second compound 10 µM, first compound 0.01 µM
[35] = second compound 10 µM, first compound 0.0316 µM
[36] = second compound 10 µM, first compound 0.1 µM
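Note: spheroids exposed to compounds for 7 days.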

## CC[C@@]1(O)C(=O)OCc2c1cc1n(c2=O)Cc2cc3c(CN(C)C)c(O)ccc3nc2-1 + Nc1ccc(C#CCN(C(=O)Cc2ncc(C(F)(F)F)cc2C(F)(F)F)c2ccc(F)cc2)nn1
Second compound 0.0316 µM
  IC50: > 0.1 µM
Second compound 0.1 µM
  IC50: > 0.1 µM
Second compound 0.316 µM
  IC50: > 0.1 µM
Second compound 1 µM
  IC50: > 0.1 µM
Second compound 3.16 µM
  IC50: > 0.1 µM
Second compound 10 µM
  IC50: > 0.1 µM
[1]
  viability, T/C: 91.3%
[2]
  viability, T/C: 89.7%
[3]
  viability, T/C: 94.6%
[4]
  viability, T/C: 83.6%
[5]
  viability, T/C: 77.8%
[6]
  viability, T/C: 63.3%
[7]
  viability, T/C: 108%
[8]
  viability, T/C: 93%
[9]
  viability, T/C: 89.4%
[10]
  viability, T/C: 82%
[11]
  viability, T/C: 72.2%
[12]
  viability, T/C: 63%
[13]
  viability, T/C: 96.7%
[14]
  viability, T/C: 101%
[15]
  viability, T/C: 93%
[16]
  viability, T/C: 94.2%
[17]
  viability, T/C: 77%
[18]
  viability, T/C: 58.9%
[19]
  viability, T/C: 100%
[20]
  viability, T/C: 91.7%
[21]
  viability, T/C: 85.2%
[22]
  viability, T/C: 85.3%
[23]
  viability, T/C: 84.3%
[24]
  viability, T/C: 54.7%
[25]
  viability, T/C: 98%
[26]
  viability, T/C: 102%
[27]
  viability, T/C: 98.5%
[28]
  viability, T/C: 83.2%
[29]
  viability, T/C: 85.1%
[30]
  viability, T/C: 59%
[31]
  viability, T/C: 98.5%
[32]
  viability, T/C: 87.2%
[33]
  viability, T/C: 98.8%
[34]
  viability, T/C: 98.8%
[35]
  viability, T/C: 81.1%
[36]
  viability, T/C: 63%

## Nc1ccn(C2OC(CO)C(O)C2(F)F)c(=O)n1 (stereo unspecified) + Nc1ccc(C#CCN(C(=O)Cc2ncc(C(F)(F)F)cc2C(F)(F)F)c2ccc(F)cc2)nn1
Second compound 0.0316 µM
  IC50: 1.04 µM
Second compound 0.1 µM
  IC50: 1.88 µM
Second compound 0.316 µM
  IC50: 2.27 µM
Second compound 1 µM
  IC50: 0.886 µM
Second compound 3.16 µM
  IC50: > 10 µM
Second compound 10 µM
  IC50: > 10 µM
[5]
  viability, T/C: 65.5%
[6]
  viability, T/C: 57.2%
Second compound 0.0316 µM, first compound 0.316 µM
  viability, T/C: 47%
Second compound 0.0316 µM, first compound 1 µM
  viability, T/C: 55.1%
Second compound 0.0316 µM, first compound 3.16 µM
  viability, T/C: 54.8%
Second compound 0.0316 µM, first compound 10 µM
  viability, T/C: 42.1%
[11]
  viability, T/C: 70.2%
[12]
  viability, T/C: 60.2%
Second compound 0.1 µM, first compound 0.316 µM
  viability, T/C: 54.3%
Second compound 0.1 µM, first compound 1 µM
  viability, T/C: 55.2%
Second compound 0.1 µM, first compound 3.16 µM
  viability, T/C: 49.6%
Second compound 0.1 µM, first compound 10 µM
  viability, T/C: 44.2%
[17]
  viability, T/C: 72%
[18]
  viability, T/C: 62.9%
Second compound 0.316 µM, first compound 0.316 µM
  viability, T/C: 56.5%
Second compound 0.316 µM, first compound 1 µM
  viability, T/C: 53.2%
Second compound 0.316 µM, first compound 3.16 µM
  viability, T/C: 49.1%
Second compound 0.316 µM, first compound 10 µM
  viability, T/C: 46.3%
[23]
  viability, T/C: 72.4%
[24]
  viability, T/C: 55.4%
Second compound 1 µM, first compound 0.316 µM
  viability, T/C: 54.2%
Second compound 1 µM, first compound 1 µM
  viability, T/C: 51.2%
Second compound 1 µM, first compound 3.16 µM
  viability, T/C: 49%
Second compound 1 µM, first compound 10 µM
  viability, T/C: 47.1%
[29]
  viability, T/C: 77.5%
[30]
  viability, T/C: 60.9%
Second compound 3.16 µM, first compound 0.316 µM
  viability, T/C: 55.7%
Second compound 3.16 µM, first compound 1 µM
  viability, T/C: 50.8%
Second compound 3.16 µM, first compound 3.16 µM
  viability, T/C: 55.8%
Second compound 3.16 µM, first compound 10 µM
  viability, T/C: 46.4%
[35]
  viability, T/C: 96%
[36]
  viability, T/C: 72%
Second compound 10 µM, first compound 0.316 µM
  viability, T/C: 69.3%
Second compound 10 µM, first compound 1 µM
  viability, T/C: 59.2%
Second compound 10 µM, first compound 3.16 µM
  viability, T/C: 54.9%
Second compound 10 µM, first compound 10 µM
  viability, T/C: 55.2%

## Cn1ncnc1[C@H]1c2n[nH]c(=O)c3cc(F)cc(c23)N[C@@H]1c1ccc(F)cc1 + COC1C(OC(N)=O)C(O)C(Oc2ccc3c(O)c(NC(=O)c4ccc(O)c(CC=C(C)C)c4)c(=O)oc3c2C)OC1(C)C
Second compound 0.0316 µM
  IC50: > 0.1 µM
Second compound 0.1 µM
  IC50: > 0.1 µM
Second compound 0.316 µM
  IC50: > 0.1 µM
Second compound 1 µM
  IC50: > 0.1 µM
Second compound 3.16 µM
  IC50: > 0.1 µM
Second compound 10 µM
  IC50: > 0.1 µM
[1]
  viability, T/C: 91.2%
[2]
  viability, T/C: 103%
[3]
  viability, T/C: 92.2%
[4]
  viability, T/C: 94.9%
[5]
  viability, T/C: 87%
[6]
  viability, T/C: 72.1%
[7]
  viability, T/C: 101%
[8]
  viability, T/C: 95.3%
[9]
  viability, T/C: 94.5%
[10]
  viability, T/C: 93.6%
[11]
  viability, T/C: 89.8%
[12]
  viability, T/C: 82.8%
[13]
  viability, T/C: 113%
[14]
  viability, T/C: 92%
[15]
  viability, T/C: 95.6%
[16]
  viability, T/C: 95.4%
[17]
  viability, T/C: 89.4%
[18]
  viability, T/C: 78.7%
[19]
  viability, T/C: 105%
[20]
  viability, T/C: 86.6%
[21]
  viability, T/C: 95.7%
[22]
  viability, T/C: 85%
[23]
  viability, T/C: 83.6%
[24]
  viability, T/C: 77%
[25]
  viability, T/C: 105%
[26]
  viability, T/C: 87.5%
[27]
  viability, T/C: 90.2%
[28]
  viability, T/C: 98.5%
[29]
  viability, T/C: 93.7%
[30]
  viability, T/C: 75.7%
[31]
  viability, T/C: 95.1%
[32]
  viability, T/C: 97.4%
[33]
  viability, T/C: 85%
[34]
  viability, T/C: 90.5%
[35]
  viability, T/C: 88.4%
[36]
  viability, T/C: 75.3%
